Results from patent publication US7767659B2, “Synthesis of naturally occurring ecteinascidins and related compounds” (Pharma Mar, S.A., priority 2002, dated 2010).
Like-named read-outs stand apart in the source and are kept apart here.

Experiments:
HMEC1 = experiment: Inhibition of cells growth by colorimetric assay (SRB)
How it was run: (§1)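 Colorimetric SRB read (490 nm) on triplicate wells after 48 h at 37 °C, 5% CO2. Dose range 10 to 10^−8 μg/ml; 5×10^3 cells/well pre-attached 18 h.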

[1] = as above; conditions: human
How it was run: as §1

HT-29 = experiment: cells; conditions: Homo sapiens, HT-29, 48 h
How it was run: as §1

A-549 = experiment: cells; conditions: Homo sapiens, A549, 48 h
How it was run: as §1

K-562 = experiment: Inhibition of cells growth by colorimetric assay (SRB); conditions: Homo sapiens, K562, 48 h; for GI50: read-out: K562 GI50; for CC50: read-out: K562 LC50; for IC (TGI): read-out: K562 TGI
How it was run: as §1

IGROV-1 = experiment: as above; conditions: Homo sapiens, IGROV-1, 48 h; for GI50: read-out: IGROV GI50; for CC50: read-out: IGROV LC50; for IC (TGI): read-out: IGROV TGI
How it was run: as §1

SK-BR-3 = experiment: as above; conditions: Homo sapiens, SK-BR-3, 48 h
How it was run: as §1

DU-145 = experiment: as above; conditions: Homo sapiens, DU-145, 48 h; for GI50: read-out: DU145 GI50; for CC50: read-out: DU145 LC50; for IC (TGI): read-out: DU145 TGI
How it was run: as §1

PANC-1 = experiment: as above; conditions: Homo sapiens, PANC-1, 48 h; for GI50: read-out: PANC-1 GI50; for CC50: read-out: PANC-1 LC50; for IC (TGI): read-out: PANC-1 TGI
How it was run: as §1

HeLa-APL = experiment: as above; conditions: Homo sapiens, 48 h
How it was run: as §1

SK-MEL-28 = experiment: as above; conditions: Homo sapiens, SK-MEL-28, 48 h; for GI50: read-out: MEL-28 GI50; for CC50: read-out: MEL-28 LC50; for IC (TGI): read-out: MEL-28 TGI
How it was run: as §1

HeLa = experiment: as above; conditions: Homo sapiens, HeLa, 48 h
How it was run: as §1

LNCaP = experiment: as above; conditions: Homo sapiens, LNCaP, 48 h; for GI50: read-out: LNCAP GI50; for CC50: read-out: LNCAP LC50; for IC (TGI): read-out: LNCAP TGI
How it was run: as §1

IGROV-ET = experiment: as above; conditions: Homo sapiens, 48 h; for GI50: read-out: IGROV-ET GI50; for CC50: read-out: IGROV-ET LC50; for IC (TGI): read-out: IGROV-ET TGI
How it was run: as §1

LoVo-Dox = experiment: as above; conditions: Homo sapiens, 48 h; for GI50: read-out: LOVO-DOX GI50; for CC50: read-out: LOVO-DOX LC50; for IC (TGI): read-out: LOVO-DOX TGI
How it was run: as §1

LoVo = experiment: cells; conditions: Homo sapiens, LoVo, 48 h; for GI50: read-out: LOVO GI50; for CC50: read-out: LOVO LC50; for IC (TGI): read-out: LOVO TGI
How it was run: as §1

SK-OV-3 = experiment: Inhibition of cells growth by colorimetric assay (SRB); conditions: for GI50 / CC50: Homo sapiens, SK-OV-3, 48 h; for GI50: read-out: SK-OV3 GI50; for CC50: read-out: SK-OV3 LC50; for SK-OV3 TGI: SRB, 48 hours exposure
How it was run: as §1

For `COc1cc2c(cc1O)CCN[C@]21CS[C@@H]2c3c(OC(C)=O)c(C)c4c(c3[C@H](COC1=O)N1C2C2N[C@@H](Cc3cc(C)c(OC)c(O)c32)[C@@H]1C#N)OCO4` (stereo partly drawn) [compound 15], the “TGI H-MEC-1” value (HMEC1; H-MEC-1, SRB, 48 hours exposure) was 1.32E−08 Molar, the GI50 (HMEC1; Homo sapiens, HMEC-1, 48 h, read-out: GI50 H-MEC-1) was 0.556 nM and the CC50 at 48 h [1] was 4440 nM. It also gave a GI50 (HT-29; read-out: GI50 HT29) of 0.484 nM, a CC50 (HT-29; read-out: LC50 HT29) of 3130 nM and an IC (TGI) (HT-29; read-out: TGI HT29) of 5.35 nM. The GI50 (A-549; read-out: GI50 A549) was 2 nM, the CC50 (A-549; read-out: LC50 A549) was 176 nM and the IC (TGI) (A-549; read-out: TGI A549) was 7.35 nM.
Work on `COc1cc2c(cc1O)CCN[C@]21CS[C@@H]2c3c(O)c(C)c4c(c3[C@H](COC1=O)N1C2[C@@H]2N[C@@H](Cc3cc(C)c(OC)c(O)c32)[C@@H]1O)OCO4` (stereo partly drawn) [compound 68] yielded a GI50 (K-562) of 2.65 nM, a CC50 (K-562) of 234 nM and an IC (TGI) (K-562) of 6.6 nM. For the same compound, the GI50 (IGROV-1) was 3.94 nM, the CC50 (IGROV-1) was 35.1 nM and the IC (TGI) (IGROV-1) was 8.01 nM. The GI50 (SK-BR-3; read-out: SK-BR3 GI50) was 7.2 nM, the CC50 (SK-BR-3; read-out: SK-BR3 LC50) was 14200 nM and the IC (TGI) (SK-BR-3; read-out: SK-BR3 TGI) was 153 nM. The GI50 (DU-145) was 4.68 nM, the CC50 (DU-145) was 14200 nM and the IC (TGI) (DU-145) was 1.5 nM. For the same compound, the GI50 (PANC-1) was 3.9 nM, the CC50 (PANC-1) was 2070 nM and the IC (TGI) (PANC-1) was 12.8 nM. It also gave a GI50 (HeLa-APL; read-out: HELA-APL GI50) of 3.81 nM, a CC50 (HeLa-APL; read-out: HELA-APL LC50) of 10.4 nM and an IC (TGI) (HeLa-APL; read-out: HELA-APL TGI) of 6.32 nM. For the same compound, the GI50 (SK-MEL-28) was 5.45 nM, the CC50 (SK-MEL-28) was 52.1 nM and the IC (TGI) (SK-MEL-28) was 15.7 nM. It also gave a GI50 (HeLa; read-out: HELA GI50) of 4 nM, a CC50 (HeLa; read-out: HELA LC50) of 12.4 nM and an IC (TGI) (HeLa; read-out: HELA TGI) of 7.06 nM. The GI50 (LNCaP) was 1.59 nM, the CC50 (LNCaP) was 8.64 nM and the IC (TGI) (LNCaP) was 3.7 nM. For the same compound, the GI50 (IGROV-ET) was 290 nM, the CC50 (IGROV-ET) was 8630 nM and the IC (TGI) (IGROV-ET) was 1660 nM. It also gave a GI50 (LoVo-Dox) of 472 nM, a CC50 (LoVo-Dox) of 14200 nM and an IC (TGI) (LoVo-Dox) of 14200 nM. The GI50 (HT-29; read-out: HT29 GI50) was 6.66 nM, the CC50 (HT-29; read-out: HT29 LC50) was 14200 nM and the IC (TGI) (HT-29; read-out: HT29 TGI) was 15 nM. The GI50 (LoVo) was 12 nM, the CC50 (LoVo) was 1930 nM and the IC (TGI) (LoVo) was 48 nM. The GI50 (A-549; read-out: A549 GI50) was 28.1 nM, the CC50 (A-549; read-out: A549 LC50) was 6290 nM and the IC (TGI) (A-549; read-out: A549 TGI) was 113 nM.
`COc1cc2c(cc1O)CCN[C@]21CS[C@@H]2c3c(OC(C)=O)c(C)c4c(c3[C@H](CNC1=O)N1C2[C@H]2c3c(cc(C)c(OC)c3O)C[C@@H]([C@@H]1C#N)N2C)OCO4` (stereo partly drawn) [compound 76] gave a GI50 (K-562) of 26.9 nM, a CC50 (K-562) of 13000 nM and an IC (TGI) (K-562) of 130 nM. It also gave a GI50 (IGROV-1) of 197 nM, a CC50 (IGROV-1) of 5250 nM and an IC (TGI) (IGROV-1) of 648 nM. It also gave a GI50 (DU-145) of 492 nM, a CC50 (DU-145) of 13000 nM and an IC (TGI) (DU-145) of 1340 nM. For the same compound, the GI50 (PANC-1) was 695 nM, the CC50 (PANC-1) was 13000 nM and the IC (TGI) (PANC-1) was 4970 nM. The GI50 (SK-OV-3) was 547 nM, the CC50 (SK-OV-3) was 13000 nM and the “SK-OV3 TGI” value (SK-OV-3) was 1.90E−06 Molar. It also gave a GI50 (SK-MEL-28) of 238 nM, a CC50 (SK-MEL-28) of 1270 nM and an IC (TGI) (SK-MEL-28) of 549 nM. The GI50 (LNCaP) was 46.6 nM, the CC50 (LNCaP) was 257 nM and the IC (TGI) (LNCaP) was 80.7 nM. It also gave a GI50 (IGROV-ET) of 513 nM, a CC50 (IGROV-ET) of 1300 nM and an IC (TGI) (IGROV-ET) of 924 nM. It also gave a GI50 (LoVo-Dox) of 2660 nM, a CC50 (LoVo-Dox) of 13000 nM and an IC (TGI) (LoVo-Dox) of 8130 nM. It also gave a GI50 (HT-29; read-out: HT29 GI50) of 627 nM, a CC50 (HT-29; read-out: HT29 LC50) of 13000 nM and an IC (TGI) (HT-29; read-out: HT29 TGI) of 1300 nM. For the same compound, the GI50 (LoVo) was 274 nM, the CC50 (LoVo) was 1300 nM and the IC (TGI) (LoVo) was 683 nM. It also gave a GI50 (A-549; read-out: A549 GI50) of 413 nM, a CC50 (A-549; read-out: A549 LC50) of 4650 nM and an IC (TGI) (A-549; read-out: A549 TGI) of 840 nM.
Compound `COc1cc2c(cc1O)CCN[C@]21CS[C@@H]2c3c(OC(C)=O)c(C)c4c(c3[C@H](CNC1=O)N1C2[C@H]2c3c(cc(C)c(OC)c3O)CC([C@@H]1O)N2C)OCO4` (stereo partly drawn) [compound 77] has a GI50 (K-562) of 16.6 nM, a CC50 (K-562) of 13100 nM and an IC (TGI) (K-562) of 101 nM. It also gave a GI50 (IGROV-1) of 58 nM, a CC50 (IGROV-1) of 6320 nM and an IC (TGI) (IGROV-1) of 272 nM. It also gave a GI50 (DU-145) of 301 nM, a CC50 (DU-145) of 13100 nM and an IC (TGI) (DU-145) of 1160 nM. For the same compound, the GI50 (PANC-1) was 418 nM, the CC50 (PANC-1) was 13100 nM and the IC (TGI) (PANC-1) was 2720 nM. For the same compound, the GI50 (SK-OV-3) was 439 nM, the CC50 (SK-OV-3) was 13100 nM and the “SK-OV3 TGI” value (SK-OV-3) was 4.86E−06 Molar. The GI50 (SK-MEL-28) was 63.1 nM, the CC50 (SK-MEL-28) was 756 nM and the IC (TGI) (SK-MEL-28) was 175 nM. For the same compound, the GI50 (LNCaP) was 43.5 nM, the CC50 (LNCaP) was 118 nM and the IC (TGI) (LNCaP) was 71 nM. For the same compound, the GI50 (IGROV-ET) was 652 nM, the CC50 (IGROV-ET) was 13100 nM and the IC (TGI) (IGROV-ET) was 1700 nM. It also gave a GI50 (LoVo-Dox) of 929 nM, a CC50 (LoVo-Dox) of 13100 nM and an IC (TGI) (LoVo-Dox) of 5660 nM. For the same compound, the GI50 (HT-29; read-out: HT29 GI50) was 189 nM, the CC50 (HT-29; read-out: HT29 LC50) was 13100 nM and the IC (TGI) (HT-29; read-out: HT29 TGI) was 908 nM. For the same compound, the GI50 (LoVo) was 241 nM, the CC50 (LoVo) was 13100 nM and the IC (TGI) (LoVo) was 917 nM. It also gave a GI50 (A-549; read-out: A549 GI50) of 301 nM, a CC50 (A-549; read-out: A549 LC50) of 3650 nM and an IC (TGI) (A-549; read-out: A549 TGI) of 728 nM.
